# Measured values as given in patent US20250114436A1, “DYNAMIC-COVALENT HYDROGELS WITH GLUCOSE-SPECIFIC AND GLUCOSE-RESPONSIVE DIBORONATE CROSSLINKING” (UNIVERSITY OF NOTRE DAME DU LAC, priority 2022, published 2025).
# Key:
# [1] = Isothermal titration calorimetry (ITC), lactate binding
# Method: (§1) The binding affinities (Keq) between different small molecule PBAs and model analytes (FIG. 2) were measured through isothermal titration calorimetry (ITC). All titration experiments were performed at 298 K on a PEAQ-ITC calorimeter (MicroCal, Inc.) in degassed pH 7.4 PBS buffer, using a 38 μL syringe and 200 μL cells and consisting of 19 injections. The measurements were performed by titrating glucose, fructose, sodium lactate, or Diolsm from the syringe into a solution of small molecule variants of DiPBAsm, PyPBAsm, or FPBAsm loaded in the cell. In all titration experiments, the cell concentration was 1 mM, while the analyte concentrations in the syringe were varied according to experimental optimization. All raw data were corrected by subtraction of a dilution measurement of the titrated analytes into buffer and were then analyzed and graphed using the integrated public-domain software packages of NIPIC, SEDPHAT, and GUSSI according to a published protocol. See Brautigam et al., Nat. Protoc. 11(5): 882-894 (2016).
# (§2) To first quantify the affinities of binding for these different PBA motifs to glucose, related analytes, and model diols, a set of small molecules (FIG. 2) were synthesized for isothermal titration calorimetry (ITC) studies. […] By comparison, the commonly used FPBA motif had Keq for glucose binding of only 8.6 M^−1. […] Accordingly, concerns over low-affinity glucose-binding and poor glucose selectivity of traditional PBAs are supported by these ITC data, with both issues seemingly overcome using DiPBA chemistry. […] Finally, to explore the likely outcomes of using each of these PBA motifs in the context of dynamic-covalent networks a model diol (GdL-Diol) was prepared from reaction of glucono-δ-lactone (GdL) with benzylamine. The Keq of binding for each PBA motif to this model diol were nearly identical (˜5×10^3 M^−1); this finding confirms similar 1:1 binding stoichiometry between all three PBA chemistries studied here and the GdL-derived diol chemistry commonly used in preparing dynamic-covalent PBA-diol networks.
# [2] = Isothermal titration calorimetry (ITC), glucose binding; settings: for Keq for binding to glucose: 298 K, pH 7.4 PBS
# Method: as §1, §2
# [3] = Acid-base titration for pKa determination; format: physicochemical; settings: small molecule
# Method: A 0.01 M stock solution of the PBA of interest was prepared by dissolving 0.2 mmol of each PBA in 20 mL DI water. The solution was then titrated with 0.005 M NaOH solution under constant stirring with pH monitoring.
# Previously reported diboronate glucose sensors include architectures of two phenylboronic acids attached to an aryl core via charged ammonium linkers. In a variation on this approach, the DiPBA motif explored here has introduced adjacent charge via pyridine-based phenylboronic acid structures (FIG. 1B). Besides conserving adjacent positive charge, the topology of this novel design was also intended to afford a more rigid pocket for simultaneous glucose binding by both boronates (FIG. 2B). Details for the synthesis and molecular characterization of this novel DiPBA group, along with all other synthetic small molecules and macromers, are reported in the Online Supporting Information. As a control for this glucose-binding motif, a single pyridine-PBA (PyPBA) was also synthesized. DiPBA and PyPBA motifs were compared in this work to a fluorine-substituted PBA motif (FPBA) that has been routinely reported in glucose-responsive materials and therapeutic constructs.
# [4] = Isothermal titration calorimetry (ITC), fructose binding
# Method: as §1, §2
# [5] = system: streptozotocin (STZ)-induced diabetic mice; test: Blood glucose control in vivo with glucose tolerance tests; parameters: species or system male C57BL6/J mice; settings: free insulin 4 IU/kg
# Method: To evaluate the performance hydrogels for blood glucose control, male C57BL6/J mice (8 weeks old, ˜25 g/mouse; Jackson Laboratory) were induced to be insulin deficient using streptozotocin (STZ). Mice were fasted for 4 h, following which a single intraperitoneal (i.p.) injection of STZ at a dose of 150 mg/kg was administered. Following an additional 30 min fast, food was returned. Seven days following STZ treatment, insulin-deficient diabetes was verified using hand-held blood glucose meters (CVS brand) with unfasted blood glucose (BG) levels ensured to be above 600 mg/dL for study inclusion. Mice were then fasted for 12 h, and those with BG >550 mg/dL were randomly divided into 4 groups (n=5-6/group). […] BG level were continuously monitored for 3 h after treatment. […] BG were subsequently monitored for 3 h. […] Areas under the curve (AUC) were calculated using the trapezoidal rule and statistical analyses were performed to compare DiPBA and FPBA treatment groups using GraphPad Prism v9.0, with significance obtained using a Student's t-test. […] Glucose levels were monitored over time using handheld glucometers (FIG. 11B). […]
Compound,lactate binding compared to FPBA / traditional PBA [1],Keq for glucose relative to that for lactate (times higher) ([1]; pH 7.4 PBS),glucose affinity relative to a traditional PBA motif (times higher) [2],Keq for binding to glucose [2],pKa1 [3],pKa2 [3],fructose binding compared to FPBA / traditional PBA [4],Keq for glucose relative to that for fructose (times higher) ([4]; pH 7.4 PBS),pKa ([3]; DI water titrated with 0.005 M NaOH),blood glucose response to first i.p. glucose tolerance test ([5]; GTT 1.25 g/kg glucose at 180 min),time to blood glucose nadir ([5]; s.c.)
COC(=O)c1cc(C[n+]2cccc(B(O)O)c2)ccc1C[n+]1cccc(B(O)O)c1 [DiPBA],reduced,29 times,150 times,1295 M⁻¹,4.53,7.45,reduced,1.7 times,–,–,–
COC(=O)c1cccc(C[n+]2cccc(B(O)O)c2)c1 [PyPBA],reduced,–,–,164.7 M⁻¹,–,–,reduced,–,4.41,–,–
"insulin: Recombinant Human Insulin, free insulin control, 4 IU/kg s.c.",–,–,–,–,–,–,–,–,–,dramatically increased blood glucose without any subsequent correction,~1 h
